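Briefly, cells in 96-well plates were exposed to five compound concentrations for 48 h, and endpoints were estimated by linear interpolation. GI50 marks 50% less growth. TGI: total growth inhibition.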
Legend:
Assay in all cases: NCI-60 cell line screen, 48 h
A498 renal = system: A498 renal
HCC-2998 colon = system: HCC-2998 colon
HT29 colon = system: HT29 colon
KM12 colon = system: KM12 colon
NCI/ADR-RES ovarian = system: NCI/ADR-RES ovarian
OVCAR-4 ovarian = system: OVCAR-4 ovarian
SN12C renal = system: SN12C renal
SNB-75 CNS = system: SNB-75 CNS
U251 CNS = system: U251 CNS
UO-31 renal = system: UO-31 renal

| SMILES | GI50 (A498 renal) [µM] | TGI (A498 renal) [µM] | GI50 (HCC-2998 colon) [µM] | TGI (HCC-2998 colon) [µM] | GI50 (HT29 colon) [µM] | TGI (HT29 colon) [µM] | GI50 (KM12 colon) [µM] | TGI (KM12 colon) [µM] | GI50 (NCI/ADR-RES ovarian) [µM] | TGI (NCI/ADR-RES ovarian) [µM] | GI50 (OVCAR-4 ovarian) [µM] | TGI (OVCAR-4 ovarian) [µM] | GI50 (SN12C renal) [µM] | TGI (SN12C renal) [µM] | GI50 (SNB-75 CNS) [µM] | TGI (SNB-75 CNS) [µM] | GI50 (U251 CNS) [µM] | TGI (U251 CNS) [µM] | GI50 (UO-31 renal) [µM] | TGI (UO-31 renal) [µM] |
| --- | --- | --- | --- | --- | --- | --- | --- | --- | --- | --- | --- | --- | --- | --- | --- | --- | --- | --- | --- | --- |
| COc1ccc(OC)c(/C=C/C(=O)c2ccc(SC)cc2)c1 | 13.7 | 30.3 | 4.81 | 17.1 | 3.89 | > 100 | 4.9 | 27.7 | 3.28 | 11.8 | 61.1 | > 100 | 17.2 | 33.9 | 8.88 | > 100 | 12.7 | 26.9 | 15.5 | 30.7 |
| CN1CCN(Cc2ccc(NC(=O)c3cncc(C#Cc4cncc5[nH]ncc45)c3)cc2C(F)(F)F)CC1 | 0.275 | 1.56 | 0.777 | 5.88 | 0.251 | 6.24 | 0.0209 | 2.65 | 4.09 | 11.3 | 0.171 | 5.34 | 0.906 | 5.73 | 0.793 | 2.51 | 1.53 | 7.76 | 1.01 | 2.52 |
| CC(=O)O[C@H]1Cc2c([nH]c3ccccc23)[C@@H](c2ccc(Cl)cc2)N1C(=O)CCNC(C)(C)C | 1.9 | 5.83 | 3.65 | 7.85 | 1.59 | 5.57 | 4.33 | 9.51 | 5.57 | 12.2 | 3.06 | 7.14 | 4.24 | 8.54 | 1.64 | 7.52 | 4.33 | 8.62 | 1.45 | 6.08 |
| COC(=O)C1=C(C)NC(C)=C(C(=O)OC)C1c1ccccc1[N+](=O)[O-] | 11.3 | 56.3 | > 100 | > 100 | > 100 | > 100 | > 100 | > 100 | 49.3 | > 100 | 61.9 | > 100 | 82.2 | > 100 | 27 | > 100 | > 100 | > 100 | 50 | > 100 |
| CCn1c(-c2nonc2N)nc2c(C#CC(C)(C)O)ncc(OCC3CCNCC3)c21 | 0.384 | 12.7 | 11.4 | > 25 | 10.4 | > 25 | 7.58 | > 25 | 12.8 | > 25 | > 25 | > 25 | 9.17 | > 25 | 2.74 | > 23.3 | 3.99 | > 25 | 6.42 | 18.5 |
| CO[C@H]1/C=C/C=C/C=C/C[C@H](OC(=O)[C@@H](C)NC(=O)C2CCCCC2)[C@H](C)[C@@H](O)/C(C)=C\CCC2=CC(=O)C=C(NC(=O)C1)C2=O | 0.282 | 2.33 | 0.109 | 0.762 | 0.0801 | 0.513 | 0.131 | 10.1 | 4 | > 50 | 0.225 | 2.84 | 0.106 | 0.556 | 0.0832 | 1.7 | 0.0985 | 0.953 | 0.352 | 2.79 |
| CCN(Cc1cccc(C)c1)c1ccc(CO)c(Cl)c1 | 0.0362 | 0.162 | 12.1 | 25.4 | 4.12 | 16.2 | 13.9 | 27.8 | 11.3 | 24.5 | 0.618 | 8.22 | 12.1 | 26.3 | 13.1 | 37.5 | 2.27 | 16.8 | 6.47 | 20.6 |
| NC(=S)c1cn(C2OC(CO)C(O)C2O)c2ncnc(N)c12 (centres undefined) | 0.535 | 3.01 | 0.208 | 0.998 | 0.181 | 3.96 | 0.0262 | 0.205 | 0.192 | 8.24 | 0.081 | 4.21 | 0.201 | 12.5 | 0.223 | 1.84 | 0.292 | 8.71 | 0.275 | 1.68 |
| COc1ccc2c(c1)/C(=N/OC(C)=O)c1c-2c(Nc2ccc(/C(C)=N/OC(C)=O)cc2)nc2ccccc12 | > 100 | > 100 | 26 | 59 | > 100 | > 100 | 43.5 | > 100 | 33 | > 100 | 20.8 | 45.1 | 69.7 | > 100 | 25 | 75.9 | 96.8 | > 100 | 72.8 | > 100 |
| O=C(CN1CCN(c2cc3c(cc2F)c(=O)c(C(=O)O)cn3C2CC2)CC1)Nc1ccc(C(=O)/C=C/c2ccccc2)cc1 | 1.28 | 7.37 | 39.6 | > 100 | 2.99 | 10.3 | 4.11 | > 100 | 9.75 | > 100 | 9.47 | > 100 | 3.02 | > 100 | 3.22 | > 100 | 2.92 | > 100 | 2.78 | 45.4 |
| COC(=O)[C@@H](C)C[C@H](Cc1ccccc1)NC(=O)c1csc([C@@H](C[C@H](C(C)C)N(C)C(=O)[C@@H](NC(=O)CN(C)C)C2CC2)OC(C)=O)n1 | 0.304 | > 7.5 | 0.0573 | > 16.5 | 0.013 | – | 0.0215 | > 10.5 | 13.4 | > 16.5 | 1.16 | > 16.5 | 0.0647 | > 16.5 | 0.00696 | > 16.5 | 0.055 | > 16.5 | 0.478 | > 16.5 |
| CCN(CC)Cc1cc(Nc2c3ccc(Cl)cc3nc3c(C)cccc23)ccc1O | 1.05 | 3 | 1.2 | 2.47 | 0.888 | 2.42 | 1.59 | 3.46 | 1.08 | 3.02 | 1.53 | 2.97 | 1.36 | 2.92 | 1.5 | 2.84 | 1.46 | 2.84 | 1.06 | 2.27 |
| CC[C@@]1(O)C(=O)N(CCN(C)C)Cc2c1cc1n(c2=O)Cc2cc3ccccc3nc2-1 | 56.2 | > 100 | 39.7 | > 100 | 24.6 | > 100 | 12.5 | > 54.1 | 13.7 | > 94.8 | 58.1 | > 100 | 8.85 | > 100 | 17.4 | > 100 | 18.9 | > 100 | 9.41 | > 100 |
| Nc1ccc(Sc2ccc3c4c2cccc4c(=O)n2c4ccccc4nc32)cc1 | 3.67 | 57.9 | 10.1 | > 100 | 8.55 | 73.2 | 6.63 | 58.6 | 5.95 | 62.8 | 6.93 | 28.8 | 2.61 | 19.7 | 3.35 | 48.1 | 4.13 | 20.6 | 2.43 | 18.7 |
| CCOC(=O)Nc1ccc2nc(Sc3ccc(Cl)cc3)sc2c1 | 1.19 | 26.8 | 15.3 | > 71.4 | 0.518 | 13.3 | 0.684 | > 58.8 | 1.07 | 47.3 | 20.7 | > 100 | 6.49 | > 100 | 2.96 | 33.9 | 3.15 | 44.6 | 9.57 | 79.4 |
| N#CSc1cc(-c2nc3ccccc3o2)ccc1N | 31.2 | > 82.2 | 22.6 | > 100 | 37.7 | > 100 | 6.54 | 27.1 | 22.2 | 87.5 | 30.5 | > 100 | 15.8 | 43.1 | 1.83 | > 20.7 | 11.8 | 57.3 | 22.6 | > 59.4 |
| Cc1cncc2cccc(S(=O)(=O)N3CCCNC[C@@H]3C)c12 | 1.61 | 17.7 | > 88.9 | > 100 | 29.3 | > 100 | 15.2 | > 100 | 25.4 | > 100 | > 100 | > 100 | 24.8 | > 100 | 0.214 | 6.52 | 57.2 | > 100 | 2.16 | 23.8 |
| c1ccc(-c2nn(-c3ccccc3)[n+](-c3ccccc3-c3ccccc3)n2)cc1 | 1.65 | 9.04 | 0.94 | 17.3 | 0.673 | 18.4 | 0.532 | 11 | > 78.7 | > 100 | 0.382 | 24.5 | 1.82 | 15.5 | 1.23 | 19.9 | 0.533 | 61.8 | 11.6 | > 77.6 |

Source: PubChem BioAssay (NCI)
